pIC50: −log10 of the molar value.
Legend:
GIST430 cells = assay: GIST 430 Cell Proliferation Assay; type: cell-based; conditions: Homo sapiens, resazurin, 115 hours + 5 hours
Procedure: (§1) GIST48, GIST430, and GIST882 cells were obtained from J. Fletcher (Brigham and Women's Hospital, Boston, Mass.). GIST T1 cells were obtained from B. Rubin (Cleveland Clinic, Cleveland, Ohio) and Professor Takahiro Taguchi (Kochi Medical School, Nankoku, Kochi, Japan). Briefly, GIST48 and GIST 882 cells were grown in RPMI 1640 medium supplemented with 15% characterized fetal bovine serum (Invitrogen, Carlsbad, Calif.), 1 unit/mL penicillin G, 1 μg/ml streptomycin, and 0.29 mg/mL L-glutamine at 37° C., 5% CO2, and 95% humidity. GIST430 cells were grown in Ham's F10 medium supplemented with 15% characterized fetal bovine serum (Invitrogen, Carlsbad, Calif.), 30 mg/L bovine pituitary extract (BD Biosciences, San Jose, Calif.), 0.5% Mito+ serum extender (BD Biosciences, San Jose, Calif.), 1 unit/mL penicillin G, 1 μg/ml streptomycin, and 0.29 mg/mL L-glutamine at 37° C., 5% CO2, 95% humidity. GIST T1 cells were grown in DMEM medium supplemented with 10% characterized fetal bovine serum (Invitrogen, Carlsbad, Calif.), 1 unit/mL penicillin G, 1 ng/ml streptomycin, and 0.29 mg/mL L-glutamine at 37° C., 5% CO2, and 95% humidity.
A serial dilution of test compound was dispensed into a 384-well black clear bottom plate (Corning, Corning, N.Y.). Two thousand five-hundred cells were added per well in 50 μL complete growth medium. Plates were incubated for 115 hours at 37° C., 5% CO2, 95% humidity. At the end of the incubation period 10 μL of a 440 μM solution of resazurin (Sigma, St. Louis, Mo.) in PBS was added to each well and incubated for an additional 5 hours at 37° C., 5% CO2, 95% humidity. Plates were read on a Synergy2 reader (Biotek, Winooski, Vt.) using an excitation of 540 nm and an emission of 600 nm.

[1] = molecular target: Phospho-KIT (Tyr719) in GIST430 cells (Homo sapiens, UniProt P10721); assay: GIST430 KIT Western Blot; type: cell-based; conditions: 4 hours, read-out: pKIT suppression by western blot analysi GIST430
[2] = molecular target: Phospho-KIT (Tyr719) in GIST48 cells (Homo sapiens, UniProt P10721); assay: GIST48 KIT Western Blot; type: cell-based; conditions: 4 hours, read-out: pKIT suppression by western blot analysi GIST48
[3] = molecular target: T1, c-KIT T670I kinase (Seq ID no. 6) (Homo sapiens, UniProt P10721, T670I); assay: c-KIT T670I Kinase Assay; type: biochemical; conditions: enzymatic assay, ATP 200 uM
T1 construct: GST (N); TEV cleavage site (N); purchased deCODE Biostructures
Procedure: (§2) In this assay, the oxidation of NADH (measured by decrease in absorbance at 340 nm) was continuously monitored spectrophotometrically. […] The inhibition reaction was started by mixing serial diluted test compound with the above reaction mixture. The absorption at 340 nm was monitored continuously for 5 hours at 30° C. on Synergy 2 plate reader (BioTech). […] The protein construct was prepared by deCODE Biostructures using procedures known in the art. The construct contains […] of cKit, an N-terminal tag, a GST-fusion sequence and a TEV cleavage site. This construct is identical to Seq ID no.

[4] = molecular target: T2, c-KIT V654A kinase (Seq ID no. 2) (Homo sapiens, UniProt P10721, V654A); assay: c-KIT V654A Kinase Assay; type: biochemical; conditions: enzymatic assay, ATP 200 μM
T2 construct: V654A c-Kit (residues T544-V976 with N-terminal GST fusion, 47 nM); purchased deCODE Biostructures
Procedure: (§3) In this assay, the oxidation of NADH (measured by decrease in absorbance at 340 nm) was continuously monitored spectrophotometrically. […] The inhibition reaction was started by mixing serial diluted test compound with the above reaction mixture. The absorption at 340 nm was monitored continuously for 6 hours at 30° C. on Synergy 2 plate reader (BioTech).
The protein construct was prepared by deCODE Biostructures using procedures known in the art. The construct contains residues T544-V976 of cKit, an N-terminal tag, a GST-fusion sequence and a TEV cleavage site. This construct is identical to Seq ID no.

[5] = molecular target: T3, c-KIT kinase (Seq ID no. 1) (Homo sapiens, UniProt P10721); assay: c-KIT Kinase Assay (pyruvate kinase/lactate dehydrogenase coupled); type: biochemical; conditions: enzymatic assay, ATP 200 μM; read-out: KIT (wt)
T3 construct: GST (N); TEV cleavage site (N); purchased deCODE Biostructures
Procedure: In this assay, the oxidation of NADH (measured by decrease in absorbance at 340 nm) was continuously monitored spectrophotometrically. […] The absorption at 340 nm was monitored continuously for 2 hours at 30° C. on Synergy 2 (BioTeK). The reaction rate was calculated using the 0 to 1 h time frame. Percent inhibition was obtained by comparison of reaction rate with that of a control (i.e. with no test compound). IC50 values were calculated from a series of percent inhibition values determined at a range of inhibitor concentrations using software routines as implemented in the GraphPad Prism software package. The protein construct was prepared by deCODE Biostructures using procedures known in the art. The construct contains […] of cKit, an N-terminal tag, a GST-fusion sequence and a TEV cleavage site.

GIST T1 cells = assay: GIST T1 Cell Proliferation Assay; type: cell-based; conditions: Homo sapiens, GISTT1, 72 h, resazurin, 68 hours + 4 hours
Procedure: as §1
A serial dilution of test compound was dispensed into a 384-well black clear bottom plate (Corning, Corning, N.Y.). […] Plates were read on a Synergy2 reader (Biotek, Winooski, Vt.) using an excitation of 540 nm and an emission of 600 nm.

[6] = molecular target: T4, c-KIT D816V kinase (Seq ID no. 4) (Homo sapiens, UniProt P10721, D816V); assay: c-KIT D816V kinase Assay; type: biochemical; conditions: enzymatic assay, ATP 200 uM
T4 construct: D816V c-KIT (residues T544-V976 with N-terminal GST fusion, 16 nM); purchased deCODE Biostructures
Procedure: as §3, with “5” for “6”
The protein construct was prepared by deCODE Biostructures using procedures known in the art. The construct contains residues T544-V976 of cKit, an N-terminal tag, a GST-fusion sequence and a TEV cleavage site. This construct is identical to Seq ID no. 1 except for the D816V mutation.

[7] = molecular target: T5, c-KIT D816H kinase (Seq ID no. 3) (Homo sapiens, UniProt P10721, D816H); assay: c-KIT D816H Kinase Assay; type: biochemical; conditions: enzymatic assay, ATP 200 μM
T5 construct: GST (N); TEV cleavage site (N); purchased deCODE Biostructures
Procedure: as §2, with “6” for “5”, “no. 1 except for the D816H mutation.” for “no.”

T2 sequence (P10721 544-976 V654A): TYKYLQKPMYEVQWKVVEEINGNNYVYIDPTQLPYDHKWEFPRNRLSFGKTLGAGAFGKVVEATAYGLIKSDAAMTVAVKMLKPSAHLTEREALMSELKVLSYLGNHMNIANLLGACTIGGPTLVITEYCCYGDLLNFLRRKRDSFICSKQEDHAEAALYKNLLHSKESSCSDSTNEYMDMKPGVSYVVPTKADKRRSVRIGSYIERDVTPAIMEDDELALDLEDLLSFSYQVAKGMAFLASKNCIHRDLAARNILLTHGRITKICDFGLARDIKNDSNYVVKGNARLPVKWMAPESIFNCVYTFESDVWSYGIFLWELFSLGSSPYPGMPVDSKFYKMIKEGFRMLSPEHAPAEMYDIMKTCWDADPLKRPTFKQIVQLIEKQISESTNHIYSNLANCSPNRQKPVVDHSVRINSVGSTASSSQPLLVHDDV
Sequence of Phospho-KIT (Tyr719) in GIST48 cells (P10721 whole entry V560D/D820A, form open): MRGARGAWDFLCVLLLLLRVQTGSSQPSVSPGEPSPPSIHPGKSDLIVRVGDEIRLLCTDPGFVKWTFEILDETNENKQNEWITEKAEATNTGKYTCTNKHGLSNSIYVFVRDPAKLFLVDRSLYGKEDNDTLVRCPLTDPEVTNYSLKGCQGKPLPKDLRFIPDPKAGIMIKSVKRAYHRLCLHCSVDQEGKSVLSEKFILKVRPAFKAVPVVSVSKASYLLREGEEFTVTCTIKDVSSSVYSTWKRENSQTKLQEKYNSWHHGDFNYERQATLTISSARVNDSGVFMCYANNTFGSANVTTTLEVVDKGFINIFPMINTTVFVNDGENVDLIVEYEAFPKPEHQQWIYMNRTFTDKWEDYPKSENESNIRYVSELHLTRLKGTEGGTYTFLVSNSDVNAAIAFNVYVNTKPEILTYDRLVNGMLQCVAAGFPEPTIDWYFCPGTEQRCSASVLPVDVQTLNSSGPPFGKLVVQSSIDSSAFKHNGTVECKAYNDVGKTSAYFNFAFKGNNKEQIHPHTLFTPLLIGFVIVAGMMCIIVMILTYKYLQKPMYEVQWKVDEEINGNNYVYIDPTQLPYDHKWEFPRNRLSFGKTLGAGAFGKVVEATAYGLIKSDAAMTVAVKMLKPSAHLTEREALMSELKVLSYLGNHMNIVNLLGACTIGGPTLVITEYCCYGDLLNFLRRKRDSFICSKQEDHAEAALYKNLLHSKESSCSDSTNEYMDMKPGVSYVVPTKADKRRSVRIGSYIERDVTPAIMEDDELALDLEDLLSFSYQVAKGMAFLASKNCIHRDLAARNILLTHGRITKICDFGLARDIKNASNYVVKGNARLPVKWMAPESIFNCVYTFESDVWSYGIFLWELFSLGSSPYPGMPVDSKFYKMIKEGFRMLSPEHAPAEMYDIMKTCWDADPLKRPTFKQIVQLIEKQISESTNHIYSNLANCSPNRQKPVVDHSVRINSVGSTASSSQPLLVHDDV
Sequence of Phospho-KIT (Tyr719) in GIST430 cells (P10721 with tags, fused parts or gaps DEL560-576/V654A, form open): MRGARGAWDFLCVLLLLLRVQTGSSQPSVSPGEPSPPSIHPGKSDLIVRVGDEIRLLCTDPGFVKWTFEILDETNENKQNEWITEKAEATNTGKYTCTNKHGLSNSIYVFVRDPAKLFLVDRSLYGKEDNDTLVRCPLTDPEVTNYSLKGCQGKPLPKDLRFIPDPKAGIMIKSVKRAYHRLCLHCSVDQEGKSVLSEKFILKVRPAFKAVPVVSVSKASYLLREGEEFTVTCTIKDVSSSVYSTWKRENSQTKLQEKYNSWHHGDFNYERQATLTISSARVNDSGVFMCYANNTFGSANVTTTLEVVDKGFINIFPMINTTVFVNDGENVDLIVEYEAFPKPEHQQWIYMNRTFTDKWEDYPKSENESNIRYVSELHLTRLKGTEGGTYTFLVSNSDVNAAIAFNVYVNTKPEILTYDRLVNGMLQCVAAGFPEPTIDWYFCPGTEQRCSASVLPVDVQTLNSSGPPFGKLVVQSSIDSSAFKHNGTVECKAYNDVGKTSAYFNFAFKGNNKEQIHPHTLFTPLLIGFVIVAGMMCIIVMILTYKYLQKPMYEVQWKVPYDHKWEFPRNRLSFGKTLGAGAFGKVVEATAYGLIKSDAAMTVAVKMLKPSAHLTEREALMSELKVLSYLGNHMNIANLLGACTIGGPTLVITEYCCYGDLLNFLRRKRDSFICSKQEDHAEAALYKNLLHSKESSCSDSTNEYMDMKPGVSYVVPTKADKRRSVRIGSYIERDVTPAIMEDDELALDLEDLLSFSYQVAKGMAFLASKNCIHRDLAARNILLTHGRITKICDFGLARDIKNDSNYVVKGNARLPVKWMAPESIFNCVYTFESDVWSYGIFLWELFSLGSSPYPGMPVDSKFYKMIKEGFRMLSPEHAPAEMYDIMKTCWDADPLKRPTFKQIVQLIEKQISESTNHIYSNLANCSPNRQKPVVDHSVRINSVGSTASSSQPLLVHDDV
T5 sequence (P10721 544-976 D816H): as the sequence (P10721 544-976 V654A) above, with A111V, D273H counted along it
T4 sequence (P10721 544-976 D816V): as the sequence (P10721 544-976 V654A) above, with A111V, D273V counted along it
T1 sequence (P10721 544-976 T670I): as the sequence (P10721 544-976 V654A) above, with A111V, T127I counted along it
T3 sequence (P10721 with tags, fused parts or gaps): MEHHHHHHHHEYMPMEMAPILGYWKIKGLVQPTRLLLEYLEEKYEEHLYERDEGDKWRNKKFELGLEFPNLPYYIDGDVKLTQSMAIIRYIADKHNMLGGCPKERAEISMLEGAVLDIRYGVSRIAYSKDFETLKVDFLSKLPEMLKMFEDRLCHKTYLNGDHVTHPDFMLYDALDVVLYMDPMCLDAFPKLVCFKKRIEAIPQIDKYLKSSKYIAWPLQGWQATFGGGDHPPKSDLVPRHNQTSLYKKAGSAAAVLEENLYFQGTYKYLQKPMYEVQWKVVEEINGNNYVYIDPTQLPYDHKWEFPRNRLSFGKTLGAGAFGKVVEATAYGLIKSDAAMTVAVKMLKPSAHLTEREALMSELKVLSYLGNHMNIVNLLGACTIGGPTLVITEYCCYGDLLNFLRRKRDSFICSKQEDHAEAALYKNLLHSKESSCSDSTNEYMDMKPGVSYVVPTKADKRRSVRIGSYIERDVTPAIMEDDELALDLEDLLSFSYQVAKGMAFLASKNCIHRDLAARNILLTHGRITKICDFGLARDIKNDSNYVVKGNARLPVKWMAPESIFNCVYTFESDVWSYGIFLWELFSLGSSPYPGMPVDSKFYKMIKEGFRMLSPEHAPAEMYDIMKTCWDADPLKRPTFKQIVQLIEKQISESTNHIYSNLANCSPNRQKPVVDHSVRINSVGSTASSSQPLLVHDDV

Row | Compound | pIC50 (GIST430 cells) | pIC50 [1] | pIC50 [2] | pIC50 [3] | pIC50 [4] | pIC50 [5] | pIC50 (GIST T1 cells) | pIC50 [6] | pIC50 [7]
1 | CCn1c(=O)c(-c2cc(NC(=O)Nc3ccccc3F)c(F)cc2C)cc2cnc(NC)cc21 [Example 38, 1-(5-(1-ethyl-7-(methylamino)-2-oxo-1,2-dihydro-1,6-naphthyridin-3-yl)-2-fluoro-4-methylphenyl)-3-(2-fluorophenyl)urea] | 7.00 to 8.00 | 7.00 to 8.00 | < 6.00 | – | – | – | – | – | –
2 | CCn1c(=O)c(-c2cc(NC(=O)Nc3ccccc3)c(F)cc2Cl)cc2cnc(NCCCN3CCOCC3)cc21 [Example 92, 1-(4-chloro-5-(1-ethyl-7-((3-morpholinopropyl)amino)-2-oxo-1,2-dihydro-1,6-naphthyridin-3-yl)-2-fluorophenyl)-3-phenylurea] | – | – | – | 7.00 to 8.00 | > 8.00 | > 8.00 | ≥ 8.00 | 7.00 to 8.00 | 7.00 to 8.00

Reference: US8940756B2, “Dihydronaphthyridines and related compounds useful as kinase inhibitors for the treatment of proliferative diseases” (Deciphera Pharmaceuticals, Inc., priority 2012, dated 2015)
